Source: ChEMBL document CHEMBL5331055, “Current medicinal chemistry strategies in the discovery of novel HIV-1 ribonuclease H inhibitors” (Eur J Med Chem, 2022)
Values belong to the compound of their own block, whether it stands above or below them.

Tests used:
[1] = target: T1, Human immunodeficiency virus type 1 reverse transcriptase (Human immunodeficiency virus 1, UniProt Q72547); assay: Inhibition of N-terminal 6-his-tagged HIV-1 reverse transcriptase RNase H (427 to 560 residues) transformed in Escherichia coli […] (DE3) at pH 7.4 incubated for 4 hrs
[2] = target: T1, Human immunodeficiency virus type 1 reverse transcriptase; assay: Inhibition of N-terminal 6-his-tagged HIV-1 reverse transcriptase RNase H (427 to 560 residues) transformed in Escherichia coli […] (DE3) at pH 8.0 incubated for 4 hrs
[3] = target: T1, Human immunodeficiency virus type 1 reverse transcriptase; assay: Inhibition of HIV-1 reverse transcriptase associated RNase H using 5-GTTTTCTTTTCCCCCCTGAC-3 Fluorescein/5CAAAAGAAAAGGGGGGACUG-3-Dabcyl as substrate incubated for 1 hr
[4] = target: T2, Human immunodeficiency virus type 1 integrase (Human immunodeficiency virus 1, UniProt Q7ZJM1); assay: Inhibition of recombinant HIV-1 His-tagged LEDGF-dependent integrase preincubated for 1 hr followed by compound addition and measured after 90 mins by HTRF method
T2 sequence (Q7ZJM1 whole entry): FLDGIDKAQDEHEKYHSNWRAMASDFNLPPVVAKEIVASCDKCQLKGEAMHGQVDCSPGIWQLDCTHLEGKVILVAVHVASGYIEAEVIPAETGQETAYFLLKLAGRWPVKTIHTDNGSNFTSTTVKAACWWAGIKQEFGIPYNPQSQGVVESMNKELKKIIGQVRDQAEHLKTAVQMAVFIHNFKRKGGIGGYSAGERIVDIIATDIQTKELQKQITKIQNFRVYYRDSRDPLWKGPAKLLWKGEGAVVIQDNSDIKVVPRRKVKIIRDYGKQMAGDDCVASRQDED

[5] = test system: Human immunodeficiency virus 1; assay: Antiviral activity against HIV-1 infected in human MT4 cells assessed as inhibition of virus-induced cytopathic effect measured after 5 days by spectrophotometric MTT assay; format: functional, organism-based; settings: Human immunodeficiency virus 1, MT4, 120 h
[6] = test system: MT4; assay: Cytotoxicity against human MT4 cells; format: functional
[7] = Inhibition of HIV-1 reverse transcriptase associated RNA dependent DNA polymerase activity incubated for 30 mins by multilabel counter plate reader method; parameters: species or system Human immunodeficiency virus 1
[8] = target: T1, Human immunodeficiency virus type 1 reverse transcriptase; assay: Inhibition of HIV-1 reverse transcriptase RNase H activity expressed in Escherichia coli M15 using 5-GTTTTCTTTTCCCCCCTGAC-3 Fluorescein/5CAAAAGAAAAGGGGGGACUG-3-Dabcyl RNA/DNA template-primer as substrate incubated for 1 hr by multilabel counter plate reader method
[9] = test system: Human immunodeficiency virus 1; assay: Antiviral activity against HIV-1 IIIB infected in human TZM-bl cells assessed as reduction in virus-induced cytopathic effect incubated for 5 days by MTT assay; format: functional, organism-based; settings: Human immunodeficiency virus 1, IIIB, 120 h
[10] = Cytotoxicity against human TZM-bl cells assessed as reduction in cell viability incubated for 5 days by MTT assay; format: toxicity, cell-based; settings: time 5 day
[11] = Cytotoxicity against human MT4 cells assessed as reduction in cell viability by MTT assay; format: toxicity, cell-based
[12] = target: T1, Human immunodeficiency virus type 1 reverse transcriptase; assay: Inhibition of recombinant HIV-1 reverse transcriptase […] RNase H expressed in Escherichia coli M15 using 5-GTTTTCTTTTCCCCCCTGAC-3 Fluorescein/5CAAAAGAAAAGGGGGGACUG-3-Dabcyl RNA/DNA template-primer as substrate incubated for 1 hr by multilabel counter plate reader method
[13] = Inhibition of wild type HIV-1 RNA dependent DNA polymerase activity incubated for 30 mins by multilabel counter plate reader method; parameters: species or system Human immunodeficiency virus 1
[14] = target: T1, Human immunodeficiency virus type 1 reverse transcriptase; assay: Inhibition of HIV-1 RNase H
[15] = target: T2, Human immunodeficiency virus type 1 integrase; assay: Inhibition of HIV-1 integrase strand transfer activity
[16] = target: T1, Human immunodeficiency virus type 1 reverse transcriptase; assay: Inhibition of wild type HIV-1 reverse transcriptase associated DNA polymerase independent RNase H activity using 5-GTTTTCTTTTCCCCCCTGAC-3 Fluorescein/5CAAAAGAAAAGGGGGGACUG-3-Dabcyl RNA/DNA template-primer as substrate by multilabel counter plate reader method
[17] = test system: Human immunodeficiency virus 1; assay: Antiviral activity against wild type HIV-1 IIIB infected in human MT2 cells assessed as protection against virus-induced cytopathicity incubated for 5 days by MTT assay; format: functional, organism-based; settings: Human immunodeficiency virus 1, IIIB, MT2, 120 h
[18] = target: T1, Human immunodeficiency virus type 1 reverse transcriptase; assay: Inhibition of HIV-1 reverse transcriptase associated RNase H activity
[19] = target: T1, Human immunodeficiency virus type 1 reverse transcriptase; assay: Non-competitive inhibition of HIV reverse transcriptase polymerase activity
[20] = in vitro; settings: human, TZM-bl cells
Description: Cytotoxicity against human TZM-bl cells assessed as reduction in cell viability at 20 uM incubated for 3 days by XTT assay

[21] = test system: Human immunodeficiency virus 1; assay: Antiviral activity against wild type HIV-1 infected in human MT4 cells assessed as inhibition of virus-induced cytopathic effect measured by MTT assay; format: functional, organism-based; settings: Human immunodeficiency virus 1, MT4

IC50 [3]: 1.7 µM
IC50 [4]: 16 µM
SMILES: O=C(N/N=C/c1ccc(O)cc1O)c1cc(O)c(O)c(O)c1
EC50 [5]: 17 µM
CC50 [6]: 61 µM

IC50 [8]: 14 µM
IC50 [7]: 16.1 µM
SMILES: COc1cc(OC)cc(OC(=O)c2ccc(C(F)(F)F)nc2Nc2cc(Cl)ccc2C)c1
EC50 [9]: 5 µM
CC50 at 120 h [10]: > 50 µM

IC50 [12]: 1.3 µM
IC50 [13]: 9.8 µM
SMILES: N#Cc1ccc(-c2c[nH]/c(=N\N=C3/C(=O)Nc4ccccc43)s2)cc1

IC50 [14]: 0.13 µM
SMILES: COC(=O)c1c(C)cc(O)c(=O)c(O)c1Br

IC50 [15]: 5 µM
IC50 [7]: 6.7 µM
SMILES: Cc1c(O)c([N+](=O)[O-])cc2cc(C(=O)Nc3ccc(O)c(C(=O)O)c3)c(=O)oc12

IC50 [14]: 0.6 µM
SMILES: C=C(C)[C@@H]1CCc2c(c(C)cc(O)c(=O)c2O)C1

More lines, now with the values behind:

SMILES: O=C(O)Cc1cc(=O)oc2c(O)c(O)ccc12
IC50 [1]: 4.8 µM
IC50 [2]: 1.1 µM

SMILES: COC(=O)c1cc(NC(=O)c2cc3cc([N+](=O)[O-])c(O)c(O)c3oc2=O)ccc1O
IC50 [7]: 6 µM

SMILES: Nc1ccc(S(=O)(=O)N2CCN(C(=O)c3cc(O)c(O)c(O)c3)CC2)cc1
CC50 [11]: > 19.9 µM

SMILES: Cn1cc(-c2ccc(-c3ccccc3)cc2)s/c1=N/N=C1\C(=O)Nc2ccc(Cl)cc21
IC50 [14]: 10 µM
IC50 [16]: 9.5 µM

SMILES: Nc1nn(C(=O)c2ccccc2)c(N)c1C(=S)Nc1ccc(Cl)cc1
IC50 [13]: 17 µM
IC50 [16]: 7 µM
IC50 [17]: 25 µM

SMILES: O=C1Cc2ccc(-c3ccco3)cc2C(=O)N1O
IC50 [18]: 0.65 µM
IC50 [19]: 2.6 µM

SMILES: CC1=C[C@H](c2c(O)ccc([C@@H]3CC(=O)c4c(O)cc(O)cc4O3)c2O)[C@@H](C(=O)c2ccc(O)cc2O)[C@H](c2ccc(O)cc2O)C1 [KUWANON L]
CC50 at 72 h [20]: > 20 µM

SMILES: CCOC(=O)C(=O)CC(=O)/C=C/c1cccn1Cc1ccc(F)cc1
EC50 [21]: 14 µM
